# Columns and labels:
# Cbl-b = Cbl-b (Homo sapiens (Human), UniProt Q13191); experiment: Cbl-b LCK Ub TR-FRET assay (Cbl-b Lck HTRF); type: biochemical; conditions: for IC50: Cbl-b LCK Ub TR-FRET; for fold-selectivity (Cbl-b over C-cbl) / (fold-selectivity) Cbl-b and C-Cbl Selectivity: ratio C-cbl Lck HTRF IC50 / Cbl-b Lck HTRF IC50
# Procedure: (§1) 6 μL of detection mixture was added to all wells and briefly centrifuged before incubating for 20 min at room temperature. […] IC50 was generated using no LCK as the low control and DMSO as the high control.
# c-Cbl = c-Cbl (Homo sapiens (Human), UniProt P22681); experiment: C-Cbl LCK Ub TR-FRET assay (C-cbl Lck HTRF); type: biochemical
# c-Cbl, sequence (P22681 47-435): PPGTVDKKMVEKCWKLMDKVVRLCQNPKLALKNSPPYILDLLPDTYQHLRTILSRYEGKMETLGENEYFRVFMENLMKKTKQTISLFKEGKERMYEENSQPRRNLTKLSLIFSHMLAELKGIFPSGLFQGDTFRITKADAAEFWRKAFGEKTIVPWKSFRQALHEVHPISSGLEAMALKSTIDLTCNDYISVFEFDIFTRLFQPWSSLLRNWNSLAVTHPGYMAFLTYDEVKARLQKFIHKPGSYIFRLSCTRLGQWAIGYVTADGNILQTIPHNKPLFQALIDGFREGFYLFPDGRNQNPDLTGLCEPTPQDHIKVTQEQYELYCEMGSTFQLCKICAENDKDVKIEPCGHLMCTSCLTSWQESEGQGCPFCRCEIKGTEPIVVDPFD
# Procedure: as §1
# Cbl-b, sequence (Q13191 40-426): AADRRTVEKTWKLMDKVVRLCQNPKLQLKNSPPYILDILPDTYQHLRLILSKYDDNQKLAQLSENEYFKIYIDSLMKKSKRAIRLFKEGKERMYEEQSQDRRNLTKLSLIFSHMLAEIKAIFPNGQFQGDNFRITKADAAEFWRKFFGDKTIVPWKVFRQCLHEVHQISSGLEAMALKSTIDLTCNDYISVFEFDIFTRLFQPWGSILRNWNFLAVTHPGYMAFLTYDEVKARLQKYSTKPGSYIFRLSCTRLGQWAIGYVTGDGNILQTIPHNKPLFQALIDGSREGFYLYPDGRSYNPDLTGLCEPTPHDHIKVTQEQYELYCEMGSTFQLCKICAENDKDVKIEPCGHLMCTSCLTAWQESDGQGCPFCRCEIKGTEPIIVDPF
SMILES,IC50 (Cbl-b) [nM],fold-selectivity (Cbl-b over C-cbl) (Cbl-b),IC50 (c-Cbl) [nM],IC50 (Cbl-b; Example 121) [nM],(fold-selectivity) Cbl-b and C-Cbl Selectivity (Cbl-b) [x]
"CC(=O)N(C)[C@@H](c1cccc(N2Cc3c(cc(CNC4(C)CCC4)cc3C(F)(F)F)C2=O)c1)c1nncn1C (single isomer, unassigned) [Compound 400]",≥ 20000,1.0x,20000,–,–
"CC(=O)N1CC([C@H](c2cccc(N3Cc4c(cc(CNC5(C)CCC5)cc4C(F)(F)F)C3=O)c2)c2nncn2C)C1 (single isomer, unassigned) [Compound 401]",8500,1.6 x,13000,–,–
"C[C@@H](NC1(C)CCC1)c1cc2c(c(C(F)F)c1)CN(c1cccc([C@@H](c3nncn3C)C3COC3)c1)C2=O (single isomer, unassigned) [Compound 406]",–,–,20000,9900,2.0
"Cn1cnnc1[C@@](O)(c1ccccc1)c1cccc(N2Cc3c(Cl)cc(CNC4(C)CCC4)cc3C2=O)c1 (single isomer, unassigned) [Compound 410]",–,–,15000,4500,3.4
"Cn1cnnc1[C@](O)(c1ccccc1)c1cccc(N2Cc3c(Cl)cc(CNC4(C)CCC4)cc3C2=O)c1 (single isomer, unassigned) [Compound 411]",–,–,20000,≥ 20000,1.0
"Cn1cnnc1[C@H](c1cccc(N2Cc3c(cc(CNC4(C)CCC4)cc3C(F)(F)F)C2=O)c1)C1(O)CCC1 (single isomer, unassigned) [Compound 428]",–,–,20000,5300,3.8
"Cn1cnnc1[C@H](c1cccc(N2Cc3c(cc([C@@H](NC4(C)CCC4)C4CCC4)cc3C(F)(F)F)C2=O)c1)C1COC1 (single isomer, unassigned) [Compound 435]",–,–,20000,8500,2.4
"CC1(NCc2cc3c(c(C(F)(F)F)c2)CN(c2cccc([C@H](C4COC4)n4ccnn4)c2)C3=O)CCC1 (single isomer, unassigned) [Compound 437]",–,–,20000,≥ 20000,1.0
"Cn1cnnc1[C@@H](c1cccc(N2Cc3c(cc(CNC4(C)CCC4)cc3C(F)(F)F)C2=O)c1)[C@@H]1CCS(=O)(=O)C1 (single isomer, unassigned) [Compound 438]",–,–,20000,3000,6.8
"Cn1cnnc1[C@H](c1cccc(N2Cc3c(cc(CNC4(C)CCC4)cc3C(F)(F)F)C2=O)c1)[C@@H]1CCS(=O)(=O)C1 (single isomer, unassigned) [Compound 439]",–,–,20000,14000,1.4
"CC1(NCc2cc3c(c(C(F)(F)F)c2)CN(c2cccc([C@H](c4nnc[nH]4)C4COC4)c2)C3=O)CCC1 (single isomer, unassigned) [Compound 440]",–,–,400,66,6.0
"CC1(NCc2cc3c(c(C(F)(F)F)c2)CN(c2cccc([C@@H](c4nnc[nH]4)C4COC4)c2)C3=O)CCC1 (single isomer, unassigned) [Compound 441]",–,–,20000,6300,3.2
"Cn1cnnc1[C@H](c1cccc(N2Cc3c(cc([C@@H](NC4(C)CCC4)C4CC4)cc3C(F)(F)F)C2=O)c1)C1COC1 (single isomer, unassigned) [Compound 457]",–,–,11000,7100,1.6
"Cn1cnnc1[C@@H](c1cccc(N2Cc3c(cc(CNCC4(C)CC4)cc3C(F)(F)F)C2=O)c1)C1COC1 (single isomer, unassigned) [Compound 465]",–,–,12,6.6,1.8
"Cn1cnnc1[C@@H](c1cccc(N2Cc3c(cc(CN[C@@H]4C[C@@H]5C[C@@H]5C4)cc3C(F)(F)F)C2=O)c1)C1COC1 (single isomer, unassigned) [Compound 469]",–,–,4.5,5.3,0.85
"Cn1cnnc1[C@@H](c1cccc(N2Cc3c(cc(CN[C@H]4[C@@H]5COC[C@@H]54)cc3C(F)(F)F)C2=O)c1)C1COC1 (single isomer, unassigned) [Compound 472]",–,–,42,13,3.2
"CCOc1cc([C@]2(c3nncn3C)C[C@@H](C)C2)cc(N2Cc3c(cc(CNC4(C)CCC4)cc3C(F)(F)F)C2=O)n1 [Compound 3, 2-(6-ethoxy-4-((1s,3s)-3-methyl-1-(4-methyl-4H-1,2,4-triazol-3-yl)cyclobutyl)pyridin-2-yl)-6-(((1-methylcyclobutyl)amino)methyl)-4-(trifluoromethyl)isoindolin-1-one]",3.6,(0.69x),2.5,–,–
"CCOc1cc([C@]2(c3nncn3C)C[C@H](C)C2)cc(N2Cc3c(cc(CNC4(C)CCC4)cc3C(F)(F)F)C2=O)n1 [Compound 4, 2-(6-ethoxy-4-((1r,3r)-3-methyl-1-(4-methyl-4H-1,2,4-triazol-3-yl)cyclobutyl)pyridin-2-yl)-6-(((1-methylcyclobutyl)amino)methyl)-4-(trifluoromethyl)isoindolin-1-one]",6.6,(0.91x),6,–,–
"CCNc1cc([C@]2(c3nncn3C)C[C@@H](C)C2)cc(N2Cc3c(cc(CNC4(C)CCC4)cc3C(F)(F)F)C2=O)n1 [Compound 5, 2-(6-(ethylamino)-4-((1s,3s)-3-methyl-1-(4-methyl-4H-1,2,4-triazol-3-yl)cyclobutyl)-pyridin-2-yl)-6-(((1-methylcyclobutyl)amino)methyl)-4-(trifluoromethyl)isoindolin-1-one]",7.1,(0.64x),4.5,–,–
"CCNc1cc([C@]2(c3nncn3C)C[C@H](C)C2)cc(N2Cc3c(cc(CNC4(C)CCC4)cc3C(F)(F)F)C2=O)n1 [Compound 6, 2-(6-(ethylamino)-4-((1r,3r)-3-methyl-1-(4-methyl-4H-1,2,4-triazol-3-yl)cyclobutyl)-pyridin-2-yl)-6-(((1-methylcyclobutyl)amino)methyl)-4-(trifluoromethyl)isoindolin-1-one]",11,(0.56x),6.2,–,–
"CO[C@]1(C)C[C@](c2cccc(N3Cc4c(cc(CNC5(C)CCC5)cc4C(F)(F)F)C3=O)c2)(c2nncn2C)C1 [Compound 29, 2-(3-((1s,3s)-3-methoxy-3-methyl-1-(4-methyl-4H-1,2,4-triazol-3-yl)cyclobutyl)phenyl)-6-(((1-methylcyclobutyl)amino)methyl)-4-(trifluoromethyl)isoindolin-1-one]",83,(2.0x),166,–,–
"Cn1cnnc1[C@]1(c2cccc(N3Cc4c(cc(CNC5(C)CCC5)cc4C(F)(F)F)C3=O)c2)C[C@@](C)(F)C1 [Compound 31, 2-(3-((1r,3r)-3-fluoro-3-methyl-1-(4-methyl-4H-1,2,4-triazol-3-yl)cyclobutyl)phenyl)-6-(((1-methylcyclobutyl)amino)methyl)-4-(trifluoromethyl)isoindolin-1-one]",15,(2.2x),33,–,–
"Cn1cnnc1[C@]1(c2cccc(N3Cc4c(cc(CNC5(C)CCC5)cc4C(F)(F)F)C3=O)c2)C[C@@H](F)C1 [Compound 36, 2-(3-((1r,3r)-3-fluoro-1-(4-methyl-4H-1,2,4-triazol-3-yl)cyclobutyl)phenyl)-6-(((1-methylcyclobutyl)amino)methyl)-4-(trifluoromethyl)isoindolin-1-one]",11,(1.1x),12,–,–
"Cn1cnnc1C1(c2cccc(N3Cc4c(cc(CNC5(C)CCC5)cc4C(F)(F)F)C3=O)c2)CC(C)(C)C1 [Compound 39, 2-(3-(3,3-dimethyl-1-(4-methyl-4H-1,2,4-triazol-3-yl)cyclobutyl)phenyl)-6-(((1-methylcyclobutyl)amino)methyl)-4-(trifluoromethyl)-isoindolin-1-one]",7.2,(2.4x),17,–,–
Cn1cnnc1C1(c2cccc(N3Cc4c(cc(CNC5(C)CCC5)cc4C(F)(F)F)C3=O)c2)CC2(CCC2)C1 [Compound 40],8.9,(3.2x),28,–,–
"CC(C)[C@H]1CN(C)CCN1Cc1cc2c(c(C(F)(F)F)c1)CN(c1cccc(C3(c4nncn4C)CC4(COC4)C3)c1)C2=O [Compound 41, (S)-6-((2-isopropyl-4-methylpiperazin-1-yl)methyl)-2-(3-(6-(4-methyl-4H-1,2,4-triazol-3-yl)-2-oxaspiro[3.3]heptan-6-yl)phenyl)-4-(trifluoromethyl)isoindolin-1-one]",21,(2.8x),59,–,–
"Cn1cnnc1[C@H](OC1CCC1)c1cccc(N2Cc3c(cc(CNC4(C)CCC4)cc3C(F)(F)F)C2=O)c1 [Compound 47, (R)-2-(3-(cyclobutoxy(4-methyl-4H-1,2,4-triazol-3-yl)methyl)phenyl)-6-(((1-methylcyclobutyl)amino)methyl)-4-(trifluoromethyl)isoindolin-1-one]",1200,(1.9x),2300,–,–
"CCc1cc(C2(c3nncn3C)CC(F)(F)C2)cc(N2Cc3c(cc(CNC4(C)CCC4)cc3C(F)(F)F)C2=O)n1 [Compound 59, 2-(4-(3,3-difluoro-1-(4-methyl-4H-1,2,4-triazol-3-yl)cyclobutyl)-6-ethylpyridin-2-yl)-6-(((1-methylcyclobutyl)amino)methyl)-4-(trifluoromethyl)isoindolin-1-one]",18,(0.96x),17,–,–

# From US12187709B2 (Genentech, Inc., priority 2021, dated 2025)
